Measurements from the SangsterLogP compilation.

test: not given

Question: With COCc1ccc(C#N)cc1 as the molecule, how does the logP read?
Answer: 1.23

test: method code SF-AS, from Wang, W.; Wang, L.; Tian, L.; Zhang, Z.; Qiu, J. (1987). Partition coefficients of the intermediate of pyrethroid in n-octanol/water system. Huazhong Gongxueyuan Xuebao, 15(1)135-137.

Question: For COCc1ccccc1, which logP is on record?
Answer: 1.67

Question: With CC(C)C(C#N)c1ccc(Cl)cc1 (stereo not given) as the molecule, how does the logP read?
Answer: 3.41

Question: Which logP does the source give for CCOCc1ccccc1 here?
Answer: 2.16

Question: With ClCc1ccc(Cl)cc1 as the molecule, how does the logP read?
Answer: 3.18

Question: With COCc1ccc(COC)cc1 as the molecule, how does the logP read?
Answer: 1.28

Question: For Cc1ccc(CC#N)cc1, which logP is on record?
Answer: 1.67

Question: Which logP does the source give for COCc1ccc(CC#N)cc1 here?
Answer: 1.23

Question: For C=CCOCc1ccccc1, which logP is on record?
Answer: 2.41

Question: With N#CCc1ccc(Cl)cc1 as the molecule, how does the logP read?
Answer: 2.47
